A word on the IC50: it is the concentration that inhibits the measured activity by half. Higher therefore signals lower potency.

Six compounds from patent US20210094973A1, “HETEROCYCLIC COMPOUNDS” (Hoffmann-La Roche Inc., priority 2019, published 2021) can be followed below.

The assay addresses T1, MAGL (Homo sapiens, UniProt Q99685).
T1 sequence (Q99685 1-303): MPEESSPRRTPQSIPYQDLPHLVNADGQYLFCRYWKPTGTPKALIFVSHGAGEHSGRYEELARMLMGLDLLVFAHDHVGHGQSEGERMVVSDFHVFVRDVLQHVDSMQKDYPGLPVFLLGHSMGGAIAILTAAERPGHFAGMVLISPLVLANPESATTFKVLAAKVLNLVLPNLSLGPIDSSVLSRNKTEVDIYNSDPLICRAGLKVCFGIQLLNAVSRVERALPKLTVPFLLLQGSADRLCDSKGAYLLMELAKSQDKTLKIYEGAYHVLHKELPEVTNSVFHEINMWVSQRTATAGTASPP
Kind of assay: 2-AG assay (MAGL inhibitory activity, hydrolysis of 2-arachidonoylglycerol followed by mass spectrometry). The conditions noted are these: 15 min preincubation at RT, 8 μM 2-arachidonoylglycerol, 30 min at RT, arachidonic acid by MS. The class given is biochemical. The protocol: Compounds were profiled for MAGL inhibitory activity by determining the enzymatic activity by following the hydrolysis of the natural substrate 2-arachidonoylglycerol (2-AG) resulting in arachidonic acid, which can be followed by mass spectrometry. This assay is hereinafter abbreviated “2-AG assay”.
The 2-AG assay was carried out in 384 well assay plates (PP, Greiner Cat #784201) in a total volume of 20 μL. Compound dilutions were made in 100% DMSO (VWR Chemicals 23500.297) in a polypropylene plate in 3-fold dilution steps to give a final concentration range in the assay from 12.5 μM to […]. 0.25 μL compound dilutions (100% DMSO) were added to 9 μL MAGL in assay buffer (50 mM TRIS (GIBCO, 15567-027), 1 mM EDTA (Fluka, 03690-100 mL), 0.01% (v/v) Tween. After shaking, the plate was incubated for 15 min at RT. To start the reaction, 10 μL 2-arachidonoylglycerol in assay buffer was added. The final concentrations in the assay was […] and 8 μM 2-arachidonoylglyerol. After shaking and 30 min incubation at RT, the reaction was quenched by the addition of 40 μL of ACN containing 4 μM of d8-arachidonic acid. The amount of arachidonic acid was traced by an online SPE system (Agilent Rapidfire) coupled to a triple quadrupole mass spectrometer (Agilent 6460). A C18 SPE cartridge (G9205A) was used in an ACN/water liquid setup. The mass spectrometer was operated in negative electrospray mode following the mass transitions 303.1→259.1 for arachidonic acid and 311.1→267.0 for d8-arachidonic acid. The activity of the compounds was calculated based on the ratio of intensities [arachidonic acid/d8-arachidonic acid].
The compound `CC(Oc1ccc(C(F)(F)F)cc1Cl)C1CN(C(=O)N2CC[C@H]3OCC(=O)N[C@H]3C2)C1` (stereo partly drawn) [Example 46, (4aS,8aR)-6-(3-(1-(2-Chloro-4-(trifluoromethyl)phenoxy)ethyl)azetidine-1-carbonyl)hexahydro-2H-pyrido[4,3-b][1,4]oxazin-3(4H)-one] returned an IC50 of 225 nM.

Compound `O=C1CO[C@H]2CCN(C(=O)N3CCC(c4ccnnc4C(F)(F)F)CC3)C[C@H]2N1` [Example 47, (4aR,8aS)-6-(4-(3-(Trifluoromethyl)pyridazin-4-yl)piperidine-1-carbonyl)hexahydro-2H-pyrido[4,3-b][1,4]oxazin-3(4H)-one] gave an IC50 of 90.9 nM.

The compound `O=C1CO[C@H]2CCN(C(=O)N3CC(c4nnc(-c5ccc(F)cc5F)[nH]4)C3)C[C@H]2N1` [Example 48, (4aR,8aS)-6-[3-[5-(2,4-Difluorophenyl)-4H-1,2,4-triazol-3-yl]azetidine-1-carbonyl]-4,4a,5,7,8,8a-hexahydropyrido[4,3-b][1,4]oxazin-3-one] registered an IC50 of 333 nM.

The compound `O=C1CO[C@H]2CCN(C(=O)N3CC(OCc4ccc(F)cc4C(F)(F)F)C3)C[C@H]2N1` [Example 49, (4aR,8aS)-6-[3-[[4-Fluoro-2-(trifluoromethyl)phenyl]methoxy]azetidine-1-carbonyl]-4,4a,5,7,8,8a-hexahydropyrido[4,3-b][1,4]oxazin-3-one] displayed an IC50 of 34 nM.

For “(4aR,8aS)-6-[rel-(3R,4R)-4-[(2-chloro-4-fluoro-phenoxy)methyl]-3-methyl-piperidine-1-carbonyl]-4,4a,5,7,8,8a-hexahydropyrido[4,3-b][1,4]oxazin-3-one [Example 38]”, the IC50 turned out to be 6.4 nM.

The compound “(4aR,8aS)-6-[rel-(3R,4R)-4-[(2-chloro-4-fluoro-phenoxy)methyl]-3-methyl-piperidine-1-carbonyl]-4,4a,5,7,8,8a-hexahydropyrido[4,3-b][1,4]oxazin-3-one [Example 39]” registered an IC50 of 1.9 nM.
